Laboratory results as given in US9255100B2 (BAYER INTELLECTUAL PROPERTY GMBH, priority 2010, dated 2016).

target: T1, N-terminally GST-tagged human full length recombinant Mps-1 kinase (Homo sapiens, UniProt P33981); experiment: Mps-1 kinase assay (TR-FRET); assay type: biochemical; conditions: Mps1 IC50 [nM], 10 μM ATP, 1 μM peptide substrate, 60 min at 22° C.
T1 construct: N-terminally GST-tagged human full length recombinant Mps-1 kinase; purchased Invitrogen, Karslruhe, Germany PV4071
T1 sequence (P33981 1-857): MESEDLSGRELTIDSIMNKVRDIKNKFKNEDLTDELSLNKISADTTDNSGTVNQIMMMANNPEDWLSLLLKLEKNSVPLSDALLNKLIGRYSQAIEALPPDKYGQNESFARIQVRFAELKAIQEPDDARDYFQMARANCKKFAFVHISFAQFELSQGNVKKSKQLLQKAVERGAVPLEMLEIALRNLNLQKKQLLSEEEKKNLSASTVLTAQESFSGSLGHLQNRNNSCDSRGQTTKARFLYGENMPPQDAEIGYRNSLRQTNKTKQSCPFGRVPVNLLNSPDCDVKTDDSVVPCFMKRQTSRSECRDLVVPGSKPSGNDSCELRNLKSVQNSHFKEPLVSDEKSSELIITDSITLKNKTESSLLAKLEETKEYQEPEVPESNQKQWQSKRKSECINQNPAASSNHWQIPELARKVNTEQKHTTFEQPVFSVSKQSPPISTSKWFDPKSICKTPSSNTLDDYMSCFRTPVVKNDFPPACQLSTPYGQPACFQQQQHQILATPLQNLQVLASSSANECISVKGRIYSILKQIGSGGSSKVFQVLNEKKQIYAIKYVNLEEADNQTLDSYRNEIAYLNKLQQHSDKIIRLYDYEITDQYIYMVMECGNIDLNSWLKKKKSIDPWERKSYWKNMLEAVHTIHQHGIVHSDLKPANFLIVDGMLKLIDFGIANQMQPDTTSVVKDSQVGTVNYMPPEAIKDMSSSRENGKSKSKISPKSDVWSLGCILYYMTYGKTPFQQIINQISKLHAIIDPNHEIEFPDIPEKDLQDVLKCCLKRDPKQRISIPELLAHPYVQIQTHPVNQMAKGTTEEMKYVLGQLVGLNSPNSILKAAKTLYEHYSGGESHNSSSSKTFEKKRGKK
Experimental: The human kinase Mps-1 phosphorylates a biotinylated substrate peptide. Detection of the phosphorylated product is achieved by time-resolved fluorescence resonance energy transfer (TR-FRET) from Europium-labelled anti-phospho-Serine/Threonine antibody as donor to streptavidin labelled with cross-linked allophycocyanin (SA-XLent) as acceptor. Compounds are tested for their inhibition of the kinase activity.
N-terminally GST-tagged human full length recombinant Mps-1 kinase (purchased from Invitrogen, Karslruhe, Germany, cat. no PV4071) was used. As substrate for the kinase reaction a biotinylated peptide of the amino-acid sequence […] (C-terminus in amide form, purchased from Biosynthan GmbH, Berlin) was used.
The concentration of Mps-1 in the assay was adjusted to the activity of the enzyme lot and was chosen appropriate to have the assay in the linear range, typical enzyme concentrations were in the range of about 1 nM (final conc. in the 5 μl assay volume).
The resulting mixture was incubated 1 h at 22° C. to allow the binding of the phosphorylated peptide to the anti-phospho(Ser/Thr)-Europium-antibody. Subsequently the amount of phosphorylated substrate was evaluated by measurement of the resonance energy transfer from the Europium-labelled anti-phospho(Ser/Thr) antibody to the Streptavidin-XLent.

IC50 [nM] | Structure (SMILES)
228 | Cc1cc(-c2cnc3c(NCC(C)(C)O)cc(S(C)(=O)=O)nn23)ccc1C(=O)NC1CC1 [Example 18, N-cyclopropyl-4-{8-[(2-hydroxy-2-methylpropyl)amino]-6-(methylsulfonyl)imidazo[1,2-b]pyridazin-3-yl}-2-methylbenzamide]
3.2 | COc1cc(C(=O)NC2CC2)ccc1-c1cnc2c(NCCC(F)(F)F)cc(-c3ccc(F)cc3)nn12 [Example 52, N-cyclopropyl-4-{6-(4-fluorophenyl)-8-[(3,3,3-trifluoropropyl)amino]imidazo[1,2-b]pyridazin-3-yl}-3-methoxybenzamide]
1.5 | Cc1cc(-c2cnc3c(NC[C@H]4CCCO4)cc(-c4ccnn4C)nn23)ccc1C(=O)NC1CC1 [Example 33, N-cyclopropyl-2-methyl-4-[6-(1-methyl-1H-pyrazol-5-yl)-8-{[(2R)-tetrahydrofuran-2-ylmethyl]amino}imidazo[1,2-b]pyridazin-3-yl]benzamide]
3.9 | CC(C)CNc1cc(-c2cccc(O)c2)nn2c(-c3ccc(C(=O)NC4CC4)cc3)cnc12 [Example 140, N-cyclopropyl-4-{6-(3-hydroxyphenyl)-8-[(2-methylpropyl)amino]imidazo[1,2-b]pyridazin-3-yl}benzamide]
0.1 | Cc1cc(-c2cnc3c(NCC(O)C(F)(F)F)cc(Oc4cccc(F)c4)nn23)ccc1C(=O)NC1CC1 (stereo not drawn) [Example 486, N-cyclopropyl-4-{6-(3-fluorophenoxy)-8-[(3,3,3-trifluoro-2-hydroxypropyl)amino]imidazo[1,2-b]pyridazin-3-yl}-2-methylbenzamide]
0.4 | Cc1cc(-c2cnc3c(NCCN4CCOCC4)cc(Oc4cncc(F)c4)nn23)ccc1C(=O)NC1CC1 [Example 541, N-cyclopropyl-4-(6-[(5-fluoro-pyridin-3-yl)oxy]-8-{[2-(morpholin-4-yl)ethyl]amino}imidazo[1,2-b]pyridazin-3-yl)-2-methylbenzamide]
1 | Cc1cc(-c2cnc3c(NCCC(F)(F)F)cc(O/C=C(/F)C(F)(F)CO)nn23)ccc1C(=O)NC1CC1 [Example 278B, N-cyclopropyl-2-methyl-4-(6-{[(1E)-2,3,3-trifluoro-4-hydroxybut-1-en-1-yl]oxy}-8-[(3,3,3-trifluoropropyl)amino]imidazo[1,2-b]pyridazin-3-yl)benzamide]
10.3 | CC(=O)Nc1ccncc1Oc1cc(NCCC(F)(F)F)c2ncc(-c3ccc(C(=O)NC4CC4)c(C)c3)n2n1 [Example 476, 4-(6-{[4-(acetylamino)pyridin-3-yl]oxy}-8-[(3,3,3-trifluoropropyl)amino]imidazo[1,2-b]pyridazin-3-yl)-N-cyclo-propyl-2-methyl-benzamide]
2.3 | Cc1cc(-c2cnc3c(NCC(C)(C)O)cc(Sc4ccc(Cl)cc4CO)nn23)ccc1C(=O)NC1CC1 [Example 393, 4-(6-{[4-chloro-2-(hydroxymethyl)phenyl]sulfanyl}-8-[(2-hydroxy-2-methylpropyl)amino]imidazo[1,2-b]pyridazin-3-yl)-N-cyclopropyl-2-methylbenzamide]
2 | Cc1cc(-c2cnc3c(NCC(O)C(F)(F)F)cc(-c4ccnn4C)nn23)ccc1C(=O)NC1CC1 (racemic) [Example 208, (RS)—N-cyclopropyl-2-methyl-4-{6-(1-methyl-1H-pyrazol-5-yl)-8-[(3,3,3-trifluoro-2-hydroxypropyl)amino]imidazo[1,2-b]pyridazin-3-yl}benzamide]

Continued, molecule first:

Structure (SMILES) | IC50 [nM]
Cc1cc(-c2cnc3c(NCC(C)(C)N)cc(Oc4cccnc4)nn23)ccc1C(=O)NC1CC1 [Example 522, 4-{8-[(2-amino-2-methyl-propyl)amino]-6-(pyridin-3-yloxy)imidazo[1,2-b]pyridazin-3-yl}-N-cyclopropyl-2-methylbenzamide] | 1.8
CCOc1ccc(-c2cc(NCC(C)(C)O)c3ncc(-c4ccc(C(=O)NC5CC5)c(C)c4)n3n2)cn1 [Example 158, N-cyclopropyl-4-{6-(6-ethoxypyridin-3-yl)-8-[(2-hydroxy-2-methylpropyl)amino]imidazo[1,2-b]pyridazin-3-yl}-2-methylbenzamide] | 6.4
CCNC(=O)c1ccc(-c2cnc3c(NCCOC)cc(Oc4ccc(OC)c(F)c4)nn23)cc1C [Example 610, N-ethyl-4-{6-(3-fluoro-4-methoxyphenoxy)-8-[(2-methoxyethyl)a-mino]imidazo[1,2-b]pyridazin-3-yl}-2-methylbenzamide] | < 1
Cc1cc(-c2cnc3c(NCCC(F)(F)F)cc(Sc4cccc(F)c4C)nn23)ccc1C(=O)NC1CC1 [Example 387, N-cyclopropyl-4-{6-[(3-fluoro-2-methylphenyl)sulfanyl]-8-[(3,3,3-trifluoropropyl)amino]imidazo[1,2-b]pyridazin-3-yl}-2-methylbenzamide] | 0.3
CC(C)CNc1cc(-c2ccc3[nH]c(=O)[nH]c3c2)nn2c(-c3ccc(C(=O)NC4CC4)cc3)cnc12 [Example 151, N-cyclopropyl-4-{8-[(2-methylpropyl)amino]-6-(2-oxo-2,3-dihydro-1H-benzimidazol-5-yl)imidazo[1,2-b]pyridazin-3-yl}benzamide] | 3.1
CCNC(=O)c1ccc(-c2cnc3c(NCC4CCOCC4)cc(Oc4ccc(OC)cc4F)nn23)cc1C [Example 598, N-ethyl-4-{6-(2-fluoro-4-methoxyphenoxy)-8-[(tetrahydro-2H-pyran-4-ylmethyl)a-mino]imidazo[1,2-b]pyridazin-3-yl}-2-methylbenzamide] | < 1
Cc1cc(-c2cnc3c(NCCC(F)(F)F)cc(-c4ccncc4)nn23)ccc1C(=O)NC1CC1 [Example 228, N-cyclopropyl-2-methyl-4-{6-(pyridin-4-yl)-8-[(3,3,3-trifluoropropyl)amino]imidazo[1,2-b]pyridazin-3-yl}benzamide] | 0.6
Cc1cc(-c2cnc3c(NCC4CCCCO4)cc(-c4ccncc4)nn23)ccc1C(=O)NC1CC1 (racemic) [Example 37, (RS)—N-cyclopropyl-2-methyl-4-{6-(pyridin-4-yl)-8-[(tetrahydro-2H-pyran-2-ylmethyl)amino]imidazo[1,2-b]pyridazin-3-yl}benzamide] | < 1
CC(C)(O)CNc1cc(-c2ccncc2)nn2c(-c3ccc(-c4cnc(C5CC5)[nH]4)cc3)cnc12 [Example 9, 1-({3-[4-(2-Cyclopropyl-1H-imidazol-5-yl)phenyl]-6-(pyridin-4-yl)imidazo[1,2-b]pyridazin-8-yl}amino)-2-methylpropan-2-ol] | 25
CNC(=O)c1ccc(-c2cnc3c(NCc4cccs4)cc(Cl)nn23)cc1 [Example 190, 4-{6-Chloro-8-[(thiophen-2-yl-methyl)amino]imidazo[1,2-b]pyridazin-3-yl}-N-methylbenzamide] | 660
CC(C)CNc1cc(-c2cccc(Cl)c2Cl)nn2c(-c3ccc(C(=O)NC4CC4)cc3)cnc12 [Example 131, N-cyclopropyl-4-{6-(2,3-dichlorophenyl)-8-[(2-methylpropyl)amino]imidazo[1,2-b]pyridazin-3-yl}benzamide] | 10
CC=Cc1cc(NCCC(F)(F)F)c2ncc(-c3ccc(C(=O)NC4CC4)c(C)c3)n2n1 (mixture of isomers) [Example 23, N-cyclopropyl-2-methyl-4-{6-[(1E/Z)-prop-1-en-1-yl]-8-[(3,3,3-trifluoropropyl)amino]imidazo[1,2-b]pyridazin-3-yl}benzamide] | 2.4
COc1ccc(C)c(Nc2cc(NCCC(F)(F)F)c3ncc(-c4ccc(C(=O)NC5CC5)c(C)c4)n3n2)c1 [Example 430, N-cyclopropyl-4-{6-[(5-methoxy-2-methylphenyl)amino]-8-[(3,3,3-trifluoropropyl)amino]imidazo[1,2-b]pyridazin-3-yl}-2-methylbenzamide] | 0.3
Cc1cc(-c2cnc3c(NCCS(=O)(=O)O)cc(Oc4cccc(F)c4)nn23)ccc1C(=O)NC1CC1 [Example 548, 2-({3-[4-(cyclopropylcarbamoyl)-3-methylphenyl]-6-(3-fluorophenoxy)imidazo[1,2-b]pyridazin-8-yl}amino)ethanesulfonic acid] | 0.7
